Where a name gives a salt, the structure may show the parent alone.
Structure (SMILES) | melting point
CC(C)(C)/C=C/c1cccc2c1OC(CN)C2 (racemic) (as salt: hydrochloride) [Example 117, (±)-1-{7-[(1E)-3,3-dimethylbut-1-enyl]-2,3-dihydro-1-benzofuran-2-yl}methanamine] | 216 to 218 °C
NCC1Cc2cccc(CCc3ccccc3)c2O1 (racemic) (as salt: hydrochloride) [Example 120, (±)-1-[7-(2-phenylethyl)-2,3-dihydro-1-benzofuran-2-yl]methanamine] | 155 to 157 °C
NCC1Cc2c(F)ccc(-c3ccccc3)c2O1 (racemic) (as salt: hydrochloride) [Example 98, (±)-1-(4-fluoro-7-phenyl-2,3-dihydro-1-benzofuran-2-yl)methanamine] | 254 to 257 °C
Cc1ccccc1-c1cccc2c1OC(CN)C2 (single isomer, unassigned; (+)) (as salt: hydrochloride) [Example 48, (+)-1-[7-(2-methylphenyl)-2,3-dihydro-1-benzofuran-2-yl]methanamine] | 211 to 212 °C
NCC1Cc2cccc(-c3ccc(F)cc3F)c2O1 (racemic) (as salt: hydrochloride) [Example 146, (±)-1-[7-(2,4-difluorophenyl)-2,3-dihydro-1-benzofuran-2-yl]methanamine] | 222 to 224 °C
CC1(CN)Cc2cc(Cl)cc(-c3cccs3)c2O1 (racemic) (as salt: hydrochloride) [Example 114, (±)-(5-chloro-2-methyl-7-thien-2-yl-2,3-dihydro-1-benzofuran-2-yl)methylamine] | 251 to 252 °C
NCC1Cc2cccc(-c3cccc(C(F)(F)F)c3)c2O1 (racemic) (as salt: hydrochloride) [Example 69, (±)-1-{7-[3-(trifluoromethyl)phenyl]-2,3-dihydro-1-benzofuran-2-yl}methanamine] | 172 to 174 °C
COc1cccc(-c2cccc3c2OC(CN)C3)c1 (racemic) (as salt: hydrochloride) [Example 68, (±)-1-[7-(3-methoxyphenyl)-2,3-dihydro-1-benzofuran-2-yl]methanamine] | 152 to 154 °C
Cc1ccccc1-c1cc(F)c(F)c2c1OC(CN)C2 (racemic) (as salt: hydrochloride) [Example 110, (±)-1-[4,5-difluoro-7-(2-methylphenyl)-2,3-dihydro-1-benzofuran-2-yl]methanamine] | > 224 °C
CNCC1Cc2cccc(-c3c(Cl)cccc3Cl)c2O1 (single isomer, unassigned; (-)) (as salt: hydrochloride) [Example 434, (−)-{[7-(2,6-dichlorophenyl)-2,3-dihydro-1-benzofuran-2-yl]methyl}methylamine] | 195 to 197 °C
NCC1Cc2cccc(Cc3ccccc3)c2O1 (single isomer, unassigned; (+)) (as salt: hydrochloride) [Example 16, (+)-1-(7-benzyl-2,3-dihydro-1-benzofuran-2-yl)methanamine] | 128 to 131 °C
NCC1Cc2cc(F)cc(-c3ccccc3C(F)(F)F)c2O1 (single isomer, unassigned; (-)) (as salt: hydrochloride) [Example 151, (−)-1-{5-fluoro-7-[2-(trifluoromethyl)phenyl]-2,3-dihydro-1-benzofuran-2-yl}methanamine] | 183 to 188 °C
CC1(CN)Cc2cc(Cl)cc(-c3ccsc3)c2O1 (racemic) (as salt: hydrochloride) [Example 113, (±)-(5-chloro-2-methyl-7-thien-3-yl-2,3-dihydro-1-benzofuran-2-yl)methylamine] | 295 to 298 °C (dec.)
CC1(CN)Cc2cc(Cl)cc(-c3ccccc3)c2O1 (racemic) (as salt: hydrochloride) [Example 112, (±)-1-(5-chloro-2-methyl-7-phenyl-2,3-dihydro-1-benzofuran-2-yl)methanamine] | 222 to 225 °C
NCC1Cc2cccc(-c3ccccc3)c2O1 (racemic) (as salt: hydrochloride) [Example 36, (±)-1-(7-phenyl-2,3-dihydro-1-benzofuran-2-yl)methanamine] | > 200 °C (dec.)
NCC1Cc2cccc(-c3ccccc3F)c2O1 (single isomer, unassigned; (-)) (as salt: hydrochloride) [Example 52, (−)-1-[7-(2-fluorophenyl)-2,3-dihydro-1-benzofuran-2-yl]methanamine] | 224 to 225 °C
NCC1Cc2c(cccc2-c2ccccc2)O1 (single isomer, unassigned; (+)) (as salt: hydrobromid) [Example 2, (+)-1-(4-phenyl-2,3-dihydro-1-benzofuran-2-yl)methanamine] | 225 to 226 °C
NCC1Cc2cccc(-c3ccsc3)c2O1 (single isomer, unassigned; (-)) (as salt: hydrobromid) [Example 46, (−)-1-(7-thien-3-yl-2,3-dihydro-1-benzofuran-2-yl)methanamine] | 234 to 235 °C
COc1ccccc1-c1cccc2c1OC(CN)C2 (single isomer, unassigned; (+)) (as salt: hydrochloride) [Example 128, (+)-1-[7-(2-methoxyphenyl)-2,3-dihydro-1-benzofuran-2-yl]methanamine] | 180 to 184 °C
NCC1Cc2c(cccc2-c2ccccc2)O1 (single isomer, unassigned; (-)) (as salt: hydrobromid) [Example 3, (−)-1-(4-phenyl-2,3-dihydro-1-benzofuran-2-yl)methanamine] | 227 to 228 °C
NCC1Cc2cccc(Cc3ccccc3)c2O1 (racemic) (as salt: hydrochloride) [Example 15, (±)-1-(7-benzyl-2,3-dihydro-1-benzofuran-2-yl)methanamine] | 107 to 111 °C (dec.)
CC(C)(C)c1cccc2c1OC(CN)C2 (single isomer, unassigned; (+)) (as salt: hydrochloride) [Example 26, (+)-1-(7-tert-butyl-2,3-dihydro-1-benzofuran-2-yl)methanamine] | 177 to 179 °C

Next, values leading:

melting point | Structure (SMILES)
263 to 266 °C | CNCC1Cc2cc(Cl)cc(-c3ccsc3)c2O1 (single isomer, unassigned; (+)) (as salt: hydrochloride) [Example 93, (+)-N-[(5-chloro-7-thien-3-yl-2,3-dihydro-1-benzofuran-2-yl)methyl]-N-methylamine]
125 to 128 °C | CNCC1Cc2cc(Cl)cc(C3CCCCC3)c2O1 (racemic) (as salt: hydrochloride) [Example 12, (±)-N-[(5-chloro-7-cyclohexyl-2,3-dihydro-1-benzofuran-2-yl)methyl]-N-methylamine]
201 to 204 °C | NCC1Cc2cccc(-c3ccc(Cl)cc3Cl)c2O1 (single isomer, unassigned; (+)) (as salt: hydrochloride) [Example 150, (+)-1-[7-(2,4-dichlorophenyl)-2,3-dihydro-1-benzofuran-2-yl]methanamine]
207 to 209 °C | NCC1Cc2cccc(-c3c(Cl)cccc3Cl)c2O1 (single isomer, unassigned; (-)) (as salt: hydrochloride) [Example 141, (−)-1-[7-(2,6-dichlorophenyl)-2,3-dihydro-1-benzofuran-2-yl]methanamine]
258 °C (dec.) | NCC1Cc2cc(Cl)cc(-c3ccccc3)c2O1 (racemic) (as salt: hydrochloride) [Example 84, (±)-1-(5-chloro-7-phenyl-2,3-dihydro-1-benzofuran-2-yl)methanamine]
> 210 °C | NCC1Cc2cccc(-c3ccc(F)c(Cl)c3)c2O1 (racemic) (as salt: hydrochloride) [Example 34, (±)-1-[7-(3-chloro-4-fluorophenyl)-2,3-dihydro-1-benzofuran-2-yl]methanamine]
> 250 °C | NCC1Cc2c(C(F)(F)F)ccc(Cl)c2O1 (racemic) (as salt: hydrochloride) [Example 14, (±)-[7-chloro-4-(trifluoromethyl)-2,3-dihydro-1-benzofuran-2-yl]methanamine]
277 to 280 °C | NCC1Cc2cc(Cl)cc(-c3ccsc3)c2O1 (single isomer, unassigned; (-)) (as salt: hydrobromid) [Example 91, (−)-(5-chloro-7-thien-3-yl-2,3-dihydro-1-benzofuran-2-yl)methylamine]
229 to 231 °C | CC(C)(C)c1cc(Cl)cc2c1OC(CN)C2 (racemic) (as salt: hydrochloride) [Example 27, (±)-1-(7-tert-butyl-5-chloro-2,3-dihydro-1-benzofuran-2-yl)methanamine]
160 to 164 °C (dec.) | CC(C)c1cccc2c1OC(CN)C2 (racemic) (as salt: hydrochloride) [Example 18, (±)-(7-isopropyl-2,3-dihydro-1-benzofuran-2-yl)methylamine]
210 to 213 °C | NCC1Cc2cc(Cl)cc(C3CCCCC3)c2O1 (racemic) (as salt: hydrochloride) [Example 11, (±)-(5-chloro-7-cyclohexyl-2,3-dihydro-1-benzofuran-2-yl)methylamine]
227 to 228 °C | Cc1cc2c(c(-c3ccccc3)c1)OC(CN)C2 (racemic) (as salt: hydrochloride) [Example 281, (±)-{[(5-methyl-7-phenyl-2,3-dihydro-1-benzofuran-2-yl)methyl]amine]
> 250 °C | NCC1Cc2cccc(-c3ccccc3Cl)c2O1 (racemic) (as salt: hydrochloride) [Example 60, (±)-1-[7-(2-chlorophenyl)-2,3-dihydro-1-benzofuran-2-yl]methanamine]
212 to 214 °C | NCC1Cc2cccc(-c3ccc(Cl)cc3)c2O1 (racemic) (as salt: hydrochloride) [Example 76, (±)-1-[7-(4-chlorophenyl)-2,3-dihydro-1-benzofuran-2-yl]methanamine]
219 to 222 °C | CC(C)(C)c1cc(Cl)cc2c1OC(CN)C2 (single isomer, unassigned; (-)) (as salt: hydrobromid) [Example 28, (−)-1-(7-tert-butyl-5-chloro-2,3-dihydro-1-benzofuran-2-yl)methanamine]
